Experimental data from patent US20210204544A1, “AGROCHEMICAL FORMULATIONS CONTAINING A POLYMERIC CRYSTAL GROWTH INHIBITOR” (priority 2018, published 2021).

Assay: Crystal growth of micronized fluopyram crystals suspended in water, with or without polymeric crystal growth inhibitor, on accelerated aging (FIG. 1)
Format: physicochemical
Settings: 54° C.; observed at 4 days, 35 days, then additional 2 weeks cycling -20° C./40° C.; Rhodoline 111 at 3% w/w, HPMC at 0.2% w/w
Method: FIG. 1 depicts the effect of polymeric crystal growth inhibitor on active ingredient while suspended in water. […] Polymeric crystal growth inhibitors were evaluated by suspending micronized fluopyram active ingredient crystal in water.

Which “crystal growth of fluopyram crystals suspended in water” value does the source give for `O=C(NCCc1ncc(C(F)(F)F)cc1Cl)c1ccccc1C(F)(F)F` [fluopyram, N-[2-[3-chloro-5-(trifluoromethyl)pyridin-2-yl]ethyl]-2-(trifluoromethyl)benzamide] here?
The value was “severe needle-shaped crystal growth”.
